Assay results reported in PubChem BioAssay (NCI).
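Method: 48-hour compound exposure of cells in 96-well plates, five concentrations, linear interpolation of endpoints. GI50 = concentration required for 50% inhibition of growth. TGI denotes the concentration required for complete inhibition of growth.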

What was measured:
Test in all cases: NCI-60 cell line screen, 48 h
786-0 renal = system: 786-0 renal
A498 renal = system: A498 renal
A549 NSCLC = system: A549 NSCLC
ACHN renal = system: ACHN renal
CAKI-1 renal = system: CAKI-1 renal
CCRF-CEM leukemia = system: CCRF-CEM leukemia
COLO 205 colon = system: COLO 205 colon
DLD-1 colon = system: DLD-1 colon
HCC-2998 colon = system: HCC-2998 colon
HCT-116 colon = system: HCT-116 colon
HCT-15 colon = system: HCT-15 colon
HL-60(TB) leukemia = system: HL-60(TB) leukemia
HOP-18 NSCLC = system: HOP-18 NSCLC
HOP-62 NSCLC = system: HOP-62 NSCLC
HOP-92 NSCLC = system: HOP-92 NSCLC
HT29 colon = system: HT29 colon
IGROV1 ovarian = system: IGROV1 ovarian
K-562 leukemia = system: K-562 leukemia
KM12 colon = system: KM12 colon
KM20L2 colon = system: KM20L2 colon
LOX IMVI melanoma = system: LOX IMVI melanoma
LXFL 529 NSCLC = system: LXFL 529 NSCLC
M14 melanoma = system: M14 melanoma
M19-MEL melanoma = system: M19-MEL melanoma
MALME-3M melanoma = system: MALME-3M melanoma
MOLT-4 leukemia = system: MOLT-4 leukemia
NCI-H226 lung = system: NCI-H226 lung
NCI-H460 lung = system: NCI-H460 lung
NCI-H522 lung = system: NCI-H522 lung
OVCAR-3 ovarian = system: OVCAR-3 ovarian
OVCAR-4 ovarian = system: OVCAR-4 ovarian
OVCAR-5 ovarian = system: OVCAR-5 ovarian
OVCAR-8 ovarian = system: OVCAR-8 ovarian
RPMI-8226 leukemia = system: RPMI-8226 leukemia
RXF 393 renal = system: RXF 393 renal
SF-268 CNS = system: SF-268 CNS
SF-295 CNS = system: SF-295 CNS
SF-539 CNS = system: SF-539 CNS
SK-MEL-2 melanoma = system: SK-MEL-2 melanoma
SK-MEL-28 melanoma = system: SK-MEL-28 melanoma
SK-MEL-5 melanoma = system: SK-MEL-5 melanoma
SK-OV-3 ovarian = system: SK-OV-3 ovarian
SN12C renal = system: SN12C renal
SNB-19 CNS = system: SNB-19 CNS
SNB-75 CNS = system: SNB-75 CNS
SW-620 colon = system: SW-620 colon
TK-10 renal = system: TK-10 renal
U251 CNS = system: U251 CNS
UACC-257 melanoma = system: UACC-257 melanoma
UACC-62 melanoma = system: UACC-62 melanoma
UO-31 renal = system: UO-31 renal
DMS 114 small cell lung = system: DMS 114 small cell lung
DMS 273 small cell lung = system: DMS 273 small cell lung
EKVX NSCLC = system: EKVX NSCLC
NCI-H23 lung = system: NCI-H23 lung
SNB-78 CNS = system: SNB-78 CNS
SR leukemia = system: SR leukemia

CC(=O)[CH-]C(=O)c1ccccc1.CC(=O)[CH-]C(=O)c1ccccc1.[O-]c1ccc(O)cc1.[O-]c1ccc(O)cc1.[Ti+4]
GI50 (786-0 renal): 13.2 µM
TGI (786-0 renal): 26 µM
GI50 (A498 renal): 18.4 µM
TGI (A498 renal): 37.3 µM
GI50 (A549 NSCLC): 23.5 µM
TGI (A549 NSCLC): > 100 µM
GI50 (ACHN renal): 14.7 µM
TGI (ACHN renal): 28.1 µM
GI50 (CAKI-1 renal): 17 µM
TGI (CAKI-1 renal): 34.1 µM
GI50 (CCRF-CEM leukemia): 1.91 µM
TGI (CCRF-CEM leukemia): 7.49 µM
GI50 (COLO 205 colon): 18.2 µM
TGI (COLO 205 colon): 32.6 µM
GI50 (DLD-1 colon): 16.6 µM
TGI (DLD-1 colon): 37.6 µM
GI50 (HCC-2998 colon): 16.1 µM
TGI (HCC-2998 colon): 33.6 µM
GI50 (HCT-116 colon): 15.1 µM
TGI (HCT-116 colon): 28.3 µM
GI50 (HCT-15 colon): 15.7 µM
TGI (HCT-15 colon): 37.6 µM
GI50 (HL-60(TB) leukemia): 3.71 µM
TGI (HL-60(TB) leukemia): 30.6 µM
GI50 (HOP-18 NSCLC): 27.1 µM
TGI (HOP-18 NSCLC): 72.2 µM
GI50 (HOP-62 NSCLC): 18.8 µM
TGI (HOP-62 NSCLC): 41.5 µM
GI50 (HOP-92 NSCLC): 14.1 µM
TGI (HOP-92 NSCLC): 28.9 µM
GI50 (HT29 colon): 21.5 µM
TGI (HT29 colon): 59.7 µM
GI50 (IGROV1 ovarian): 23.7 µM
TGI (IGROV1 ovarian): 63 µM
GI50 (K-562 leukemia): 15.4 µM
TGI (K-562 leukemia): 76 µM
GI50 (KM12 colon): 15.3 µM
TGI (KM12 colon): 33 µM
GI50 (KM20L2 colon): 24.5 µM
TGI (KM20L2 colon): 66.9 µM
GI50 (LOX IMVI melanoma): 14.3 µM
TGI (LOX IMVI melanoma): 27.3 µM
GI50 (LXFL 529 NSCLC): 13 µM
TGI (LXFL 529 NSCLC): 25.7 µM
GI50 (M14 melanoma): 15.6 µM
TGI (M14 melanoma): 30.8 µM
GI50 (M19-MEL melanoma): 14.8 µM
TGI (M19-MEL melanoma): 29.7 µM
GI50 (MALME-3M melanoma): 18.1 µM
TGI (MALME-3M melanoma): 33.5 µM
GI50 (MOLT-4 leukemia): 4.18 µM
TGI (MOLT-4 leukemia): > 100 µM
GI50 (NCI-H226 lung): 15 µM
TGI (NCI-H226 lung): 34.6 µM
GI50 (NCI-H460 lung): 14.2 µM
TGI (NCI-H460 lung): 44.6 µM
GI50 (NCI-H522 lung): 1.97 µM
TGI (NCI-H522 lung): 4.37 µM
GI50 (OVCAR-3 ovarian): 13.9 µM
TGI (OVCAR-3 ovarian): 27.2 µM
GI50 (OVCAR-4 ovarian): 18.2 µM
TGI (OVCAR-4 ovarian): 32.3 µM
GI50 (OVCAR-5 ovarian): 35.1 µM
TGI (OVCAR-5 ovarian): 91.4 µM
GI50 (OVCAR-8 ovarian): 13.5 µM
TGI (OVCAR-8 ovarian): 31.5 µM
GI50 (RPMI-8226 leukemia): 5.63 µM
TGI (RPMI-8226 leukemia): > 100 µM
GI50 (RXF 393 renal): 6.64 µM
TGI (RXF 393 renal): 20.5 µM
GI50 (SF-268 CNS): 14 µM
TGI (SF-268 CNS): 33.9 µM
GI50 (SF-295 CNS): 16.5 µM
TGI (SF-295 CNS): 34.3 µM
GI50 (SF-539 CNS): 11.7 µM
TGI (SF-539 CNS): 24.1 µM
GI50 (SK-MEL-2 melanoma): 14.6 µM
TGI (SK-MEL-2 melanoma): 28.2 µM
GI50 (SK-MEL-28 melanoma): 18.6 µM
TGI (SK-MEL-28 melanoma): 35.7 µM
GI50 (SK-MEL-5 melanoma): 16.2 µM
TGI (SK-MEL-5 melanoma): 30.3 µM
GI50 (SK-OV-3 ovarian): 24.4 µM
TGI (SK-OV-3 ovarian): 76.8 µM
GI50 (SN12C renal): 14.3 µM
TGI (SN12C renal): 36.4 µM
GI50 (SNB-19 CNS): 18.9 µM
TGI (SNB-19 CNS): 40 µM
GI50 (SNB-75 CNS): 14.3 µM
TGI (SNB-75 CNS): 28.1 µM
GI50 (SW-620 colon): 17 µM
TGI (SW-620 colon): 31.6 µM
GI50 (TK-10 renal): 27.7 µM
TGI (TK-10 renal): 59.2 µM
GI50 (U251 CNS): 11.1 µM
TGI (U251 CNS): 24 µM
GI50 (UACC-257 melanoma): 21.5 µM
TGI (UACC-257 melanoma): 70.7 µM
GI50 (UACC-62 melanoma): 16.2 µM
TGI (UACC-62 melanoma): 31.3 µM
GI50 (UO-31 renal): 23.7 µM
TGI (UO-31 renal): 49.5 µM

NC(CCc1nc(-c2ccccc2)cs1)C(=O)O (stereo not given)
TGI (786-0 renal): > 100 µM
TGI (A498 renal): > 100 µM
TGI (A549 NSCLC): > 100 µM
TGI (ACHN renal): > 100 µM
TGI (CAKI-1 renal): > 100 µM
TGI (CCRF-CEM leukemia): > 100 µM
TGI (COLO 205 colon): > 100 µM
TGI (DLD-1 colon): > 100 µM
TGI (DMS 114 small cell lung): > 100 µM
TGI (DMS 273 small cell lung): > 100 µM
TGI (EKVX NSCLC): > 100 µM
TGI (HCC-2998 colon): > 100 µM
TGI (HCT-116 colon): > 100 µM
TGI (HCT-15 colon): > 100 µM
TGI (HL-60(TB) leukemia): > 100 µM
TGI (HOP-18 NSCLC): > 100 µM
TGI (HOP-92 NSCLC): > 100 µM
TGI (HT29 colon): > 100 µM
TGI (IGROV1 ovarian): > 100 µM
TGI (K-562 leukemia): > 100 µM
TGI (KM12 colon): > 100 µM
TGI (LOX IMVI melanoma): > 100 µM
TGI (LXFL 529 NSCLC): > 100 µM
TGI (M14 melanoma): > 100 µM
TGI (M19-MEL melanoma): > 100 µM
TGI (MALME-3M melanoma): > 100 µM
TGI (MOLT-4 leukemia): > 100 µM
TGI (NCI-H226 lung): > 100 µM
TGI (NCI-H23 lung): > 100 µM
TGI (NCI-H460 lung): > 100 µM
TGI (NCI-H522 lung): > 100 µM
TGI (OVCAR-3 ovarian): > 100 µM
TGI (OVCAR-8 ovarian): > 100 µM
TGI (RPMI-8226 leukemia): > 100 µM
TGI (RXF 393 renal): > 100 µM
TGI (SF-295 CNS): > 100 µM
TGI (SF-539 CNS): > 100 µM
TGI (SK-MEL-28 melanoma): > 100 µM
TGI (SK-MEL-5 melanoma): > 100 µM
TGI (SK-OV-3 ovarian): > 100 µM
TGI (SN12C renal): > 100 µM
TGI (SNB-19 CNS): > 100 µM
TGI (SNB-75 CNS): > 100 µM
TGI (SNB-78 CNS): > 100 µM
TGI (SW-620 colon): > 100 µM
TGI (TK-10 renal): > 100 µM
TGI (U251 CNS): > 100 µM
TGI (UACC-257 melanoma): > 100 µM
TGI (UACC-62 melanoma): > 100 µM
TGI (UO-31 renal): > 100 µM

COC(=O)c1cc(Cl)ccc1NC(=O)C1CCCCC1
TGI (786-0 renal): > 100 µM
TGI (A549 NSCLC): > 100 µM
TGI (ACHN renal): > 100 µM
TGI (COLO 205 colon): > 100 µM
TGI (DMS 114 small cell lung): > 100 µM
TGI (DMS 273 small cell lung): > 100 µM
TGI (EKVX NSCLC): > 100 µM
TGI (HCC-2998 colon): > 100 µM
TGI (HCT-116 colon): > 100 µM
TGI (HCT-15 colon): > 100 µM
TGI (HOP-92 NSCLC): > 100 µM
TGI (HT29 colon): > 100 µM
TGI (K-562 leukemia): > 100 µM
TGI (KM12 colon): > 100 µM
TGI (KM20L2 colon): > 100 µM
TGI (LXFL 529 NSCLC): > 100 µM
TGI (MALME-3M melanoma): > 100 µM
TGI (MOLT-4 leukemia): > 100 µM
TGI (NCI-H226 lung): > 100 µM
TGI (NCI-H23 lung): > 100 µM
TGI (OVCAR-5 ovarian): > 100 µM
TGI (OVCAR-8 ovarian): > 100 µM
TGI (RPMI-8226 leukemia): > 100 µM
TGI (RXF 393 renal): > 100 µM
TGI (SF-268 CNS): > 100 µM
TGI (SF-295 CNS): > 100 µM
TGI (SF-539 CNS): > 100 µM
TGI (SK-MEL-2 melanoma): > 100 µM
TGI (SK-MEL-28 melanoma): > 100 µM
TGI (SN12C renal): > 100 µM
TGI (SNB-19 CNS): > 100 µM
TGI (SNB-78 CNS): > 100 µM
TGI (SR leukemia): > 100 µM
TGI (SW-620 colon): > 100 µM
TGI (TK-10 renal): > 100 µM
TGI (U251 CNS): > 100 µM
TGI (UACC-257 melanoma): > 100 µM
TGI (UO-31 renal): > 100 µM
